From US7754202B1, “Methods of controlling cell differentiation and growth using a fusion protein and a drug” (Stanford University, priority 1998, dated 2010) come the findings set out here.

A value given as a limit tells only on which side of the number the result lay.

In series [1] the test system is Ba/F3 cell lines expressing gp130 signaling domain fused to FKBP12 domains. Nature of the series: Proliferation of Ba/F3 cell lines expressing gp130-FKBP12 fusion proteins. Format: cell-based. From the text:
Expression cassettes encoding fusion proteins containing the signaling domains of the gp130 fused to one, two or three copies of the FKBP12 domain were used to generate stably transfected Ba/F3 cell lines. The complexes that can be assembled in response to FK1012 differ for the various fusion proteins. In the presence of FK1012, fusion proteins containing a single FKBP domain are limited to simple dimerization, whereas proteins containing two or more FKBP domains can form both dimers and oligomers.
In one illustrative experiment, an MSCV-based expression vector was constructed that contained two FKBP12 domains.

In series [2] the test system is cells. Nature of the series: Immunosuppressive activity or other toxicity to cells. Format: cell-based. The conditions noted are these: in experiments to date.
A short description of series [3]: Solubility in aqueous culture medium. Format: physicochemical. The conditions noted are these: aqueous buffer, serial dilution in culture medium, read-out: highest concentration ensuring complete solubility in the (aqueous) medium. The procedure:
Working concentrations of AP1510 can be obtained by adding compound directly from ethanol stocks, or by diluting serially in culture medium just before use. In the latter case it is recommended that the highest concentration not exceed 5 uM, to ensure complete solubility in the (aqueous) medium. In either case, the final concentration of ethanol in the medium added to mammalian cells should be kept below 0.5% (a 200-fold dilution of a 100% ethanol solution) to prevent detrimental effects of the solvent on the cells.

Series [4] concerns CD34+ cells from human cord blood transduced with dimerizer-responsive c-mpl signaling domain. Nature of the series: Amplification and erythroid differentiation of MFM-transduced human cord blood CD34+ cells. Format: cell-based. The text has this:
CD34+ cells were selected from human cord blood and transduced with a PG13-packaged, MSCV-based retrovirus vector encoding a dimerizer-responsive version of the c-mpl signaling domain (MFM, as described in Example 7, see FIG. 4). […] This finding was reproducible, occurring in each of four separate experiments.

Series [5] deals with murine bone marrow cells transduced with MSCVF1mpl. Nature of the series: Suspension culture of MSCVF1mpl-transduced bone marrow cells (cell numbers, cell types). Format: cell-based. The procedure: FIG. 2: FK1012 stimulates expansion of genetically modified bone marrow cells. Following retroviral transduction, marrow cells were cultured in IMDM containing 10% FCS, 50 U/ml penicillin, […] streptomycin either in the presence or absence of FK1012 (100 nM) or flt-3 ligand (Peprotech-100 ng/ml), in a 37°, 5% CO2, incubator. Cell numbers were determined on the days indicated. Open diamonds: No FK1012, no FL; Closed diamonds: FK1012 alone; Open circles: FL alone; Closed circles: FK1012 plus FL. Note that X axis is on a logarithmic scale.
Forty-eight hours following administration of 150 mg/kg 5-fluorouracil (5-FU), marrow cells were harvested from B6D2F1 mice and cultured for 48 hours in Dulbecco's Modified Eagle's Medium containing 16% fetal calf serum (Intergen), 5% IL3-conditioned medium (Stem Cell Technologies), 100 ng/ml recombinant human IL6 and 50 ng/ml recombinant murine stem cell factor in a 37° C., 5% CO2 incubator. After 48 hours, cells were transferred onto irradiated (1500 cGy) producer cells and cocultivated using the same growth conditions except for the addition of polybrene ([…]). Marrow cells were harvested after 48-hours of cocultivation.
In order to test whether the pharmacological activation of mpl is capable of driving proliferation in genetically modified bone marrow cells, the F1mpl construct was inserted into the retroviral vector MSCV-neoEB (Hawley, et al. Gene Ther. 1:136, 1994). The resulting construct, MSCVF1mpl, was used to generate a stable, high titer, helper virus-free ecotropic producer cell line as described above. Supernatant from the producer cell line was capable of conferring G418 resistance and FK1012 responsiveness in transduced Ba/F3 cell clones (FIG. 1C). Gene transfer into murine bone marrow cells was performed by cocultivation, and transduced marrow cells were tested in suspension culture for the capacity to respond to FK1012. In one set of cultures, FK1012's effects were evaluated in the absence of added growth factors. […] Cell numbers were determined at various time points of culture (FIG. 2). In the absence of drug or added growth factors, all cells died over a period of 7-14 days. […] In contrast, FK1012 dramatically stimulated cell proliferation. The proliferative effect of FK1012 was apparent within 5 days of culture, and has persisted for longer than 49 days without evidence of decline. […] By 42 days of culture FK1012 had induced a greater than 2.5 million-fold expansion in cell numbers.
The types of cells emerging in response to FK1012 differed at varying time points of culture. […] Similar results were obtained in a second experiment.

The subject of series [6] is transduced marrow cells. Nature of the series: Reversibility of FK1012-dependent cell proliferation after 28 days of culture. The series is classed as cell-based, murine. The procedure: For the experiments whose results are shown in Table 3, after 28 days of culture in FK1012 (100 nM), transduced marrow cells were washed extensively and cultured in suspension in the presence (+) or absence (−) of FK1012. The numbers in Table 3 indicate the number of cells per well×10^−5.

The subject of series [7] is clonogenic progenitor cells (CFU-C) of MSCVF1mpl-transduced marrow. The series is described as follows: CFU-C assays during suspension culture, with or without G418. The series is classed as cell-based, murine. Here is the method: FIG. 3: CFU-C assays at various time points during suspension culture. Cells were harvested on the days indicated and cultured in semisolid media (Blau, et al. Hum. Gen. Ther. 7:2069, 1996) either in the presence or absence of G418. The concentration of G418, […], was sufficient to prevent the growth of nontransduced cells (data not shown). Dark bars: CFU-C numbers in the absence of G418; Light bars: CFU-C numbers in the presence of G418. (A) No FK1012, no FL; (B) FK1012 alone; (C) FL alone; (D) FK1012 plus FL. Note that FK1012-mediated CFU-C expansion markedly favors the genetically modified cell population.
To determine whether FK1012 is capable of stimulating expansion among clonogenic progenitor cells, progenitors were assayed at various time points of culture as colony forming unit cells (CFU-C). As the MSCVF1mpl vector incorporates a neo gene. (Hawley, et al. Gene Ther. 1:136, 1994), the frequency of genetically modified progenitors is reflected in the frequency of G418 resistant CFU-C. […] By day 28 CFU-C had fallen to undetectable levels (FIG. 3A). In contrast, in the presence of FK1012 an almost 600,000-fold expansion in CFU-C was observed by day 42 (FIG. 3B). […] Of note is that while granulocytes were virtually absent after 42 days in suspension culture in the presence of FK1012 alone, CFU-C progeny derived from these cultures contained large numbers of granulocytes. […]

The test system of series [8] is G418 resistant CFU-C. Nature of the series: FK1012-mediated selection of genetically modified CFU-C in a mixed transduced/non-transduced marrow population. Format: cell-based, murine. The conditions noted are these: mixed transduced and non-transduced marrow. The text has this: In order to determine whether FK1012 is capable of specifically delivering a mitogenic signal to a minor population of genetically modified CFU-C, marrow cells cocultivated with the MSCVF1mpl producer cell line were mixed with marrow cells cocultivated with the parental packaging cell line. The frequency of G418 CFU-C arising from this mixed population of transduced and non-transduced cells was 35%.
The numbers in Table 4 indicate the fraction of G418 resistant CFU-C.

Series [9] is described as follows: In vivo half life.
[10] abbreviates: gp130 chimeric proteins containing a single FKBP12 domain.
Where [11] appears, read: gp130 fusion proteins with two or three FKBP12 domains.
Setting [12] is: FK1012 100 nM, suspension culture.

As to `CCC(C)(C)C(=O)C(=O)N1CCCC[C@H]1C(=O)O[C@H](CCc1ccc(OC)c(OC)c1)c1cccc(OCC(=O)NCCNC(=O)COc2cccc([C@@H](CCc3ccc(OC)c(OC)c3)OC(=O)[C@@H]3CCCCN3C(=O)C(=O)C(C)(C)CC)c2)c1` [AP1510], the proliferative response entry in series [1] (setting [10]) is “minimal proliferative response”; in series [1] (setting [11]), “vigorous proliferative responses”. Also, in series [2], the “immunosuppressive activity or other toxicity to cells” value is recorded as “no immunosuppressive activity or other toxicity to cells”. The solubility in series [3] was no more than 5 µM.
Regarding `CC[C@H](C(=O)N1CCCC[C@H]1C(=O)O[C@H](CCc1ccc(OC)c(OC)c1)c1cccc(OCC(=O)NCCNC(=O)COc2cccc([C@@H](CCc3ccc(OC)c(OC)c3)OC(=O)[C@@H]3CCCCN3C(=O)[C@@H](CC)c3cc(OC)c(OC)c(OC)c3)c2)c1)c1cc(OC)c(OC)c(OC)c1` [AP1903], in series [4] (by day 15 of culture), the cells expressing glycophorin is 90%. Also, the “expansion in total cell numbers” value in series [4] (in the absence of added cytokines) is 175-350 fold. The cell proliferation entry in series [1] (MSCV construct, gp130 with two modified FKBP12 domains, Ba/F3 cells) was “vigorous AP1903-dependent cell proliferation”.
As for FK1012, in series [5] (setting [12]), the “persistence of proliferative effect without evidence of decline” value is given as greater than 49 days. In series [5] (setting [12]), the “time until proliferative effect apparent” value was no more than 5 days. The “expansion in cell numbers” value in [5] (by 42 days of culture, FK1012 100 nM) was “greater than 2.5 million”. For the same molecule, the “types of cells emerging” value in series [5] (first two weeks of culture in FK1012) is “mature granulocytes and macrophages predominated, while megakaryocytes were rare”; in series [5] (later time points of culture in FK1012), “megakaryocytes emerged as the dominant phenotypically identifiable cell population”. For the same molecule, the “number of cells per well” value in series [6] (absence (−) of FK1012 after 28 days in FK1012 and washing, day 0) is given as 5 10^5 cells per well; in series [6] (absence (−) of FK1012 after 28 days in FK1012 and washing, day 7), 0.59 10^5 cells per well; in series [6] (absence (−) of FK1012 after 28 days in FK1012 and washing, day 14), “.09 cells per well×10^−5”; in series [6] (presence (+) of FK1012, day 0 in culture) it was 5 10^5 cells per well; in series [6] (presence (+) of FK1012, day 7 in culture), 36 10^5 cells per well; in [6] (presence (+) of FK1012, day 14 in culture), 1283 10^5 cells per well. Further, in series [6] (cells cultured 28 days in FK1012, then withdrawal or re-addition), the “reversibility of proliferative effect” value is recorded as “withdrawal of FK1012 was followed promptly by cell death”. In addition, in series [7] (by day 42, FK1012 alone), the “expansion in CFU-C” value is ~600,000 fold. Further, the “fraction of G418 resistant CFU-C” value in [8] (day 0 in culture) was 0.35; in [8] (day 7 in culture) it was 0.96. The proliferative response result in series [1] (setting [10]) is “minimal proliferative response”; in [1] (setting [11]) it was “lesser proliferative responses”. Besides, the “in vivo half life” value in [9] was “less than one”.

B1: FL: flt-3 ligand (Peprotech), growth factor used at 100 ng/ml (protein, UniProt P49771 27-235, looked up)
Fms-related tyrosine kinase 3 …: TQDCSFQHSPISSDFAVKIRELSDYLLQDYPVTVASNLQDEELCGGLWRLVLAQRWMERLKTVAGSKMQGLLERVNTEIHFVTKCAFQPPPSCLRFVQTNISRLLQETSEQLVALKPWITRQNFSRCLELQCQPDSSTLPPPWSPRPLEATAPTAPQPPLLLLLLLPVGLLLLAAAWCLHWQRTRRRTPRPGEQVPPVPSPQDLLLVEH
As for B1, the “cell survival in suspension culture” value in series [5] (FL alone) was “all cells died by day 28”. In [5] (FL alone (100 ng/ml), between 9 and 12 days of suspension culture), the “expansion in cell numbers” value is “three”. Further, the “expansion in CFU-C” value in series [7] (FL alone, transient, without preference for the transduced population) is on record as “seven”. The “fraction of G418 resistant CFU-C” value stood at 0.35 in series [8] (day 0 in culture) and 0.14 in series [8] (day 7 in culture).
